A word on the IC50: it is the concentration at which inhibition is half-maximal.

Factor D, sequence (P00746 26-253): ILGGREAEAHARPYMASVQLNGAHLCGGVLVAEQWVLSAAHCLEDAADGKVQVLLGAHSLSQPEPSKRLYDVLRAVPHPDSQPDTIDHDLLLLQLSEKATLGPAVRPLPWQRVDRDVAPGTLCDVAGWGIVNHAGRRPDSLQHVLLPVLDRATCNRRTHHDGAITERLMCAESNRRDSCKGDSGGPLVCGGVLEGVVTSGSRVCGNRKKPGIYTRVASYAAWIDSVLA

The first assay has as its target Factor D (Homo sapiens (Human), UniProt P00746). In words: biochemical. In kind it is biochemical.
Details: not given
On to `NC(=O)n1cc(CC(=O)N2C[C@@H]3C[C@@H]3[C@H]2C(=O)NCc2cccc(Cl)c2F)c2cc(OCCO)ccc21` (relative stereo) [Example 465, 3-{2-[(1S*,2S*,5R*)-2-(3-Chloro-2-fluoro-benzylcarbamoyl)-3-aza-bicyclo[3.1.0]hex-3-yl]-2-oxo-ethyl}-5-(2-hydroxy-ethoxy)-indole-1-carboxylic acid amide], for which the concentration for half-maximal inhibition (IC50) amounted to 1590 nM.

Still in this assay, the particulars now being: read-out: IC50.
Turning to `NC(=O)n1cc(NC(=O)N2C3CC3C[C@H]2C(=O)NCc2cccc(Cl)c2)c2ccccc21` (stereo partly drawn) [Example 183, (1R,3S,5R)-2-Aza-bicyclo[3.1.0]hexane-2,3-dicarboxylic acid 2-[(1-carbamoyl-1H-indol-3-yl)-amide] 3-(3-chloro-benzylamide)], the IC50 came out at 20 nM.

With `NC(=O)n1cc(NC(=O)N2C[C@H](F)C[C@H]2CNS(=O)(=O)c2cccc(Br)c2)c2ccccc21` [Example 108, 3-({(2S,4R)-4-Fluoro-2-[(3-bromo-benzenesulfonylamino)-methyl]-pyrrolidine-1-carbonyl}-amino)-indole-1-carboxylic acid amide], the 50% inhibitory concentration (IC50) stood at 55 nM. With `NC(=O)n1cc(NC(=O)N2C[C@@H](N)C[C@H]2C(=O)NC(CCO)c2cccc(Cl)c2)c2ccccc21` (stereo partly drawn) [Example 71, (2S,4S)-4-Amino-pyrrolidine-1,2-dicarboxylic acid 1-[(1-carbamoyl-1H-indol-3-yl)-amide] 2-{[1-(3-chloro-phenyl)-3-hydroxy-propyl]-amide}], the IC50 was determined as 2900 nM. On the same count and under the same terms, next, `C[C@H](NC(=O)[C@@H]1[C@H](O)CCN1C(=O)Nc1cn(C(N)=O)c2ccccc12)c1cccc(Cl)c1F` (single isomer, unassigned) [Example 365]: 45 nM; `NC(=O)n1cc(NC(=O)N2C[C@H](F)C[C@H]2C(=O)NCc2cc(C(=O)O)cc(Cl)c2F)c2ccccc21` [Example 144, 3-({[(2S,4R)-1-(1-carbamoyl-1H-indol-3-ylcarbamoyl)-4-fluoro-pyrrolidine-2-carbonyl]-amino}-methyl)-5-chloro-4-fluoro-benzoic acid]: 15 nM; `NC(=O)n1cc(NC(=O)N2C[C@@](F)(CNC=O)C[C@H]2C(=O)NCc2cccc(Cl)c2F)c2ccccc21` [Example 410, 2S,4S)-4-Fluoro-4-formylaminomethyl-pyrrolidine-1,2-dicarboxylic acid 1-[(1-carbamoyl-1H-indol-3-yl)-amide]2-(3-chloro-2-fluoro-benzylamide]: 15 nM. Take `NC(=O)n1cc(NC(=O)N2C3CC3C[C@H]2C(=O)Nc2cccc(OC(F)(F)F)c2)c2ccc(F)cc21` (stereo partly drawn) [Example 297, (1R,3S,5R)-2-Aza-bicyclo[3.1.0]hexane-2,3-dicarboxylic acid 2-[(1-carbamoyl-6-fluoro-1H-indol-3-yl)-amide] 3-[(3-trifluoromethoxy-phenyl)-amide]]: the IC50 amounted to 350 nM. In the case of `NC(=O)n1cc(NC(=O)N2C[C@@H](N)C[C@H]2C(=O)NCc2cccc(Cl)c2F)c2ccccc21` [Example 26, (2S,4S)-4-Amino-pyrrolidine-1,2-dicarboxylic acid 1-[(1-carbamoyl-1H-indol-3-yl)-amide]2-(3-chloro-2-fluoro-benzylamide)], the IC50 was 25 nM.

Regarding `CC(=O)c1cn(CC(=O)N2[C@@H]3C[C@@H]3C[C@H]2C(=O)NCc2cccc(Cl)c2F)c2nc(C#N)ccc12` [Example 532, (1R,3S,5R)-2-[2-(3-Acetyl-6-cyano-pyrrolo[2,3-b]pyridin-1-yl)-acetyl]-2-aza-bicyclo[3.1.0] hexane-3-carboxylic acid 3-chloro-2-fluoro-benzylamide], the half-maximal inhibitory concentration (IC50) worked out at 223 nM. As for `COC1CN(C(=O)c2cc(Cl)c(F)c(CNC(=O)[C@@H]3C[C@@H](F)CN3C(=O)Nc3cn(C(N)=O)c4ccccc34)c2)C1` [Example 255, (2S,4R)-4-Fluoro-pyrrolidine-1,2-dicarboxylic acid 1-[(1-carbamoyl-1H-indol-3-yl)-amide] 2-[3-chloro-2-fluoro-5-(3-methoxy-azetidine-1-carbonyl)-benzylamide]], the IC50 turned out to be 434 nM. On the same count and under the same terms, then `NC(=O)n1cc(NC(=O)N2C[C@@H](N)C[C@H]2C(=O)NCCc2ccccc2)c2ccccc21` [Example 81, (2S,4S)-4-Amino-pyrrolidine-1,2-dicarboxylic acid 1-[(1-carbamoyl-1H-indol-3-yl)-amide] 2-(phenethyl-amide)], with 4750 nM; and `NC(=O)c1cn(CC(=O)N2C[C@H](F)C[C@H]2C(=O)NCc2cccc(Cl)c2F)c2cc(OC(F)F)ccc12` [Example 528, 1-{2-[(2S,4R)-2-(3-Chloro-2-fluoro-benzylcarbamoyl)-4-fluoro-pyrrolidin-1-yl]-2-oxo-ethyl}-6-difluoromethoxy-1H-indole-3-carboxylic acid amide], with 75 nM; and `NC(=O)c1cn(CC(=O)N2C[C@H](F)C[C@H]2C(=O)NCc2cccc(Br)c2F)c2ccccc12` [Example 481, 1-{2-[(2S,4R)-2-(3-Bromo-2-fluoro-benzylcarbamoyl)-4-fluoro-pyrrolidin-1-yl]-2-oxo-ethyl}-1H-indole-3-carboxylic acid amide], with 22 nM.

Regarding `C[C@H]1CCN(C(=O)Nc2cn(C(N)=O)c3ccccc23)[C@@H]1C(=O)Nc1cccc(OC(F)(F)F)c1` [Example 227, (2S,3S)-3-Methyl-pyrrolidine-1,2-dicarboxylic acid 1-[(1-carbamoyl-1H-indol-3-yl)-amide] 2-[(3-trifluoromethoxy-phenyl)-amide]], the IC50 worked out at 800 nM. On the same count and under the same terms, then `NC(=O)n1cc(NC(=O)N2C[C@@H](N)C[C@H]2C(=O)NCc2ccc3ccccc3c2)c2ccccc21` [Example 63, (2S,4S)-4-Amino-pyrrolidine-1,2-dicarboxylic acid 1-[(1-carbamoyl-1H-indol-3-yl)-amide] 2-[(naphthalen-2-ylmethyl)-amide]], with 11400 nM; and `NC(=O)n1cc(NC(=O)N2C[C@@H](N)C[C@H]2C(=O)NC2(c3ccccc3)CC2)c2ccccc21` [Example 72, (2S,4S)-4-Amino-pyrrolidine-1,2-dicarboxylic acid 1-[(1-carbamoyl-1H-indol-3-yl)-amide] 2-[(1-phenyl-cyclopropyl)-amide]], with 7000 nM. The same measure, in the same setting: then `NC(=O)c1nn(CC(=O)N2[C@@H]3C[C@@H]3C[C@H]2C(=O)Nc2cccc(-c3c(F)cccc3Cl)c2)c2cnccc12` [Example 722, 1-(2-((1R,3S,5R)-3-(2′-Chloro-6′-fluorobiphenyl-3-ylcarbamoyl)-2-azabicyclo[3.1.0]hexan-2-yl)-2-oxoethyl)-1H-pyrazolo[3,4-c] pyridine-3-carboxamide], with 20 nM; and `NC(=O)n1cc(NC(=O)N2C[C@@H](N)C[C@H]2C(=O)N[C@@H]2C[C@H]2c2ccccc2)c2ccccc21` [Example 83], with 2250 nM. With `NC[C@]1(F)C[C@@H](C(=O)NCc2cccc(Cl)c2F)N(C(=O)Nc2cn(C(N)=O)c3ccccc23)C1` [Example 408, 2S,4R)-4-Aminomethyl-4-fluoro-pyrrolidine-1,2-dicarboxylic acid 1-[(1-carbamoyl-1H-indol-3-yl)-amide]2-(3-chloro-2-fluoro-benzylamide], the concentration for half-maximal inhibition (IC50) came out at 1400 nM. With `NC(=O)n1cc(NC(=O)N2C[C@@H](N)C[C@H]2C(=O)NCc2cccc(O)c2)c2ccccc21` [Example 35, (2S,4S)-4-Amino-pyrrolidine-1,2-dicarboxylic acid 1-[(1-carbamoyl-1H-indol-3-yl)-amide] 2-(3-hydroxy-benzylamide)], the half-inhibitory concentration (IC50) is 2850 nM.

Regarding `C[C@@]12C[C@@H](C(=O)Nc3cccc(OC(F)(F)F)c3F)N(C(=O)Cn3nc(C(N)=O)c4ccncc43)[C@@H]1C2` [Example 738, 1-{2-[(1R,3S,5R)-3-(2-Fluoro-3-trifluoromethoxy-phenylcarbamoyl)-5-methyl-2-aza-bicyclo[3.1.0]hex-2-yl]-2-oxo-ethyl}-1H-pyrazolo[3,4-c] pyridine-3-carboxylic acid amide], the IC50 worked out at 93 nM. In the case of `NC(=O)n1cc(NC(=O)N2C[C@H](F)C[C@H]2C(=O)N[C@H](CO)c2ccccc2)c2ccccc21` [Example 13, (2S,4R)-4-Fluoro-pyrrolidine-1,2-dicarboxylic acid 1-[(1-carbamoyl-1H-indol-3-yl)-amide] 2-[((S)-2-hydroxy-1-phenyl-ethyl)-amide]], the IC50 came to 139 nM. The same measure, in the same setting: then `CC(=O)c1cn(CC(=O)N2[C@@H]3C[C@@H]3C[C@H]2C(=O)NCc2cccc(Cl)c2F)c2cnc(C)cc12` [Example 646, (1R,3S,5R)-2-[2-(3-Acetyl-5-methyl-pyrrolo[2,3-c]pyridin-1-yl)-acetyl]-2-aza-bicyclo [3.1.0]hexane-3-carboxylic acid 3-chloro-2-fluoro-benzylamide], with 12 nM. For the compound `NC(=O)c1cc(NC(=O)N2CCC[C@H]2C(=O)Nc2cccc(OC(F)(F)F)c2)n2ccccc12` [Example 123, (S)-Pyrrolidine-1,2-dicarboxylic acid 1-[(1-carbamoyl-indolizin-3-yl)-amide]2-[(3-trifluoromethoxy-phenyl)-amide]], the IC50 stood at 2930 nM. As for `NC(=O)n1cc(NC(=O)N2C[C@H](F)C[C@H]2C(=O)NCc2cc(CN3CCOCC3)cc(Cl)c2F)c2ccccc21` [Example 18, (2S,4R)-4-Fluoro-pyrrolidine-1,2-dicarboxylic acid 1-[(1-carbamoyl-1H-indol-3-yl)-amide] 2-(3-chloro-2-fluoro-5-morpholin-4-ylmethyl-benzylamide)], the half-maximal inhibitory concentration (IC50) worked out at 815 nM.

On to `NC(=O)n1cc(NC(=O)N2CC[C@@H](O)[C@H]2C(=O)NCc2cccc(Cl)c2)c2ccccc21` [Example 177, (2S,3R)-3-Hydroxy-pyrrolidine-1,2-dicarboxylic acid 1-[(1-carbamoyl-1H-indol-3-yl)-amide] 2-(3-chloro-benzylamide)], for which the IC50 was determined as 85 nM. The same measure, in the same setting: then `Cc1ccc(CNC(=O)[C@@H]2C[C@H](N)CN2C(=O)Nc2cn(C(N)=O)c3ccccc23)cc1` [Example 43, (2S,4S)-4-Amino-pyrrolidine-1,2-dicarboxylic acid 1-[(1-carbamoyl-1H-indol-3-yl)-amide] 2-(4-methyl-benzylamide)], with 7750 nM. On the same count and under the same terms, next, `NC(=O)n1cc(NC(=O)N2C[C@@](F)(CN3CCOCC3)C[C@H]2C(=O)NCc2cccc(Cl)c2F)c2ccccc21` [Example 243, (2S,4S)-4-Fluoro-4-morpholin-4-ylmethyl-pyrrolidine-1,2-dicarboxylic acid 1-[(1-carbamoyl-1H-indol-3-yl)-amide] 2-(3-chloro-2-fluoro-benzylamide)]: 200 nM.

These data come from patent publication US9085555B2, “Complement pathway modulators and uses thereof” (priority 2011, dated 2015).
